{"source": "patent US9220760B2", "about": "“Method of modulating the proliferation of medullary thyroid carcinoma cells” (The Administrators of the Tulane Educational Fund, priority 2001, dated 2015)", "key": {"human MTC cell line TT [1]": {"system": "human MTC cell line TT", "assay": "TT cell viability by Trypan Blue staining", "assay_type": "cell-based", "procedure": "(§1) After incubation, the cells were washed three times with ice-cold PBS and twice with 10% ice-cold trichloroacetic acid (TCA). TCA-precipitated material was solubilized in 500 μL 0.2 mol/L sodium hydroxide and 0.1% SDS. Cell-associated radioactivity was then counted in a scintillation spectrometer. Results (counts per min per well) were obtained by determining the mean value of at least six experiments in quadruplicate. The viability of TT cells in control and treated cultures was evaluated by Trypan blue staining both after 24 and 48 hours, and the number of viable cells was always 85-95%."}, "human SSTR2": {"target": "T1, human SSTR2 (Homo sapiens, UniProt P30874)", "T1 construct": "expressed in transfected cells", "T1 sequence (P30874 whole entry)": "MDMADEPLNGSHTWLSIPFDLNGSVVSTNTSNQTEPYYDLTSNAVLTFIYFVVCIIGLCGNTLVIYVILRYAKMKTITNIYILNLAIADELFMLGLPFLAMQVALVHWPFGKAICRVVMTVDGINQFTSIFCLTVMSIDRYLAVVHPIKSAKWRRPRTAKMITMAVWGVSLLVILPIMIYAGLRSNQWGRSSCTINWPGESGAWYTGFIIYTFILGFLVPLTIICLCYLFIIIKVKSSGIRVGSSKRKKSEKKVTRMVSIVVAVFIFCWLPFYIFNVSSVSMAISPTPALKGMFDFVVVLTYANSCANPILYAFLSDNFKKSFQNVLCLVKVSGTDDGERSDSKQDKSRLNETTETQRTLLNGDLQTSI", "assay": "SSTR2 mediated intracellular calcium mobilization in CHO-K1 cells", "assay_type": "cell-based", "conditions": "10^-7-10^-6 M, FIG. 1", "description": "Biological activity of SSTR selective agonists and antagonists was evaluated by the calcium mobilization assay in CHO-K1 cells expressing the human SSTR2 or SSTR5. The cells were harvested by incubating in a 0.3% EDTA/phosphate buffered saline solution (25° C.), and washed twice by centrifugation. The washed cells were resuspended in Hank's—buffered saline solution (HBSS) for loading of the fluorescent Ca^2+ indicator Fura-2AM. Cell suspensions (approximately 10^6 cells/ml) were incubated with 2 mM Fura-2AM for 30 min at 25° C. Unloaded Fura-2AM was removed by centrifugation twice in HBBS, and the final suspensions were transferred to a spectrofluorometer (Hitachi F-2000) equipped with a magnetic stirring mechanism and a temperature-regulated cuvette holder. After equilibration to 37° C., the SS analogues were added for measurement of intracellular Ca^2+ mobilization."}, "human MTC cell line TT [2]": {"system": "human MTC cell line TT", "assay": "[3H]thymidine incorporation (DNA synthesis) in TT cells", "assay_type": "cell-based", "conditions": "for Change of [3H]thy incorporation: p<0.05", "procedure": "Cells were incubated in 24-well plates for 48 hours in a culture medium supplemented with SS analogues at various concentrations (10^−9, 10^−8, 10^−7, and 10^−6 M). Control wells were treated with vehicle solution and [^3H]thy incorporation was measured as radioactivity in TCA-precipitated material. Data from six individual experiments evaluated independently in quadruplicate are expressed as the mean±SEM percent [^3H]thy incorporation inhibition versus untreated control cells *P<0.05 and **P<0.01 vs. control.\nControl wells were treated with vehicle solution. [^3H]thy incorporation was measured as radioactivity in TCA-precipitated material. Data from six individual experiments were evaluated independently with four replicates expressed as the mean±SEM percent [^3H]thy incorporation inhibition versus untreated control cells *P<0.05 and **P<0.01 vs. control.\nThe effects of SSTR selective agonists and antagonists on TT cell DNA synthesis were assessed by determining the rate of [^3H]thymidine ([^3H]thy) incorporation, as previously described (Davis L, et al., 1994 In: Basic methods in Molecular Biology, 2nd edition, Appleton & Lange, Norwalk, Conn., USA: 611-646, degli Uberti E C, et al., 1991 J Clin Endocrinol Metab 72: 1364-1371). TT cells were plated in 24-multiwell plates (10^5 cells/well) and incubated for 48 hours in a medium supplemented with 10% FBS in the presence of [^3H]thy (1.5 μCi/mL; 87 Ci/mmol) with or without each SS analogue at concentrations ranging from 10^−6 to 10^−9 M. Treatments were renewed by adding fresh analogues to the wells after the first 24 h of incubation, without removing the medium.\nas §1"}, "human SSTR1": {"target": "human SSTR1 (Homo sapiens, UniProt P30872)", "sequence (P30872 whole entry)": "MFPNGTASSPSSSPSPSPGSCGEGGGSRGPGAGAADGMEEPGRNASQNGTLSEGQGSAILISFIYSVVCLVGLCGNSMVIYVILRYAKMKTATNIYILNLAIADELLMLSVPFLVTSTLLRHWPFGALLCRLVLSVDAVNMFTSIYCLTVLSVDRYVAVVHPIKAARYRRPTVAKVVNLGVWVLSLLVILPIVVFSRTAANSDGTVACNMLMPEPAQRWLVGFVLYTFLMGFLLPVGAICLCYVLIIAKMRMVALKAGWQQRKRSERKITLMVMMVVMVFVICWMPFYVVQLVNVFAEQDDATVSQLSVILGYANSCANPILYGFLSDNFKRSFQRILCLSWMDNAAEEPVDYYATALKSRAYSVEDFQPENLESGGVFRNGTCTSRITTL", "assay": "Radioligand membrane receptor binding assay, SSTR1", "conditions": "CHO-K1 membranes, [125I-Tyr11]SS-14; read-out: Human somatostatin receptor subtype specificity, Ki, receptor subtype 1", "description": "Specificity and selectivity of the analogues were determined by Radioligand Binding Assay on CHO-K1 cells stably transfected with each of the SSTR subtypes, as follows.\nMembranes for in vitro receptor binding assays were obtained by homogenizing the CHO-K1 cells expressing the SSTR's subtypes in ice-cold 50 mM Tris-HCl and centrifuging twice at 39000 g (10 min), with an intermediate resuspension in fresh buffer. The final pellets were resuspended in 10 mM Tris-HCl for assay. […] The final assay volume was 0.3 ml. […] The incubations were terminated by rapid filtration through GF/C filters (pre-soaked in 0.3% polyethylenimine) using a Brandel filtration manifold. Each tube and filter were then washed three times with 5 ml aliquots of ice-cold buffer.\nSubtype affinity was determined by radioligand membrane receptor binding assays in Chinese hamster ovary cells expressing human SSR2 gene or SSR5 cDNA"}, "human MTC cell line TT [3]": {"system": "human MTC cell line TT", "assay": "TT cell proliferation ([…] 96 MTS assay, viable cell number)", "assay_type": "cell-based", "procedure": "Cells were incubated in 96-well plates for 48 hours in a culture medium supplemented with SS analogues at various concentrations (10^−9, 10^−8, 10^−7, and 10^−6 M). Control wells were treated with vehicle solution. TT cell proliferation was measured as absorbance at […] of each well. Data from six individual experiments were evaluated independently with eight replicates expressed as the mean±SEM percent cell proliferation inhibition versus untreated control cells *P<0.05 and **P<0.01 vs. control.\n(§2) Control wells were treated with vehicle solution. TT cell proliferation was measured as absorbance at […] of each well. Data from six individual experiments were evaluated independently with eight replicates expressed as the mean±SEM percent cell proliferation inhibition versus untreated control cells *P<0.05 and **P<0.01 vs. control.\nas §2, with “solution and” for “solution.”\nThe effects of SSTR selective agonists and antagonists on TT cell proliferation were assessed by the […] […] The absorbance at 490 nm was then recorded using an ELISA plate reader (EASIA Reader, Medgenix, Camarillo, Calif.). […]"}}, "note": "Where two headings read alike, the source gives them in different places. Where a SMILES comes first, the peptide text is derived from it. [ ]: non-standard residue; d: D form. Tic = O=C(O)[C@@H]1Cc2ccccc2CN1; Abu = CC[C@H](N)C(=O)O", "data": [{"smiles": "CC(C)[C@@H]1NC(=O)[C@H](CCCCN)NC(=O)[C@@H](Cc2c[nH]c3ccccc23)NC(=O)[C@H](Cc2ccc(O)cc2)NC(=O)[C@@H](NC(=O)[C@H](N)Cc2ccc3ccccc3c2)CSSC[C@@H](C(=O)N[C@H](C(N)=O)[C@@H](C)O)NC1=O", "note": "[Compound 1, D-Nal-cyclo[Cys-Tyr-D-Trp-Lys-Val-Cys]-Thr-NH2]", "values": [{"measurement": "Cytotoxic action by Trypan Blue staining", "setting": "human MTC cell line TT [1]; 10^-7 M", "result": "not associated with any cytotoxic action"}]}, {"smiles": "CC[C@@H]1NC(=O)[C@H](CCCCN)NC(=O)[C@@H](Cc2c[nH]c3ccccc23)NC(=O)[C@H](Cc2ccc(O)cc2)NC(=O)[C@@H]2Cc3ccccc3CN2C(=O)[C@H](Cc2ccccc2)NC1=O", "note": "[Compound 2, cyclo[Tic-Tyr-D-Trp-Lys-Abu-Phe]] (cyclo([Tic]Y[dW]K[Abu]F))", "values": [{"measurement": "Intracellular Ca2+ mobilization (ratio stimulated/basal) in SSTR2 expressing cells", "setting": "human SSTR2", "result": "stimulated significant intracellular Ca^2+ mobilization"}, {"measurement": "Cytotoxic action by Trypan Blue staining", "setting": "human MTC cell line TT [1]", "result": "not associated with any cytotoxic action"}]}, {"smiles": "CC[C@@H]1NC(=O)[C@H](CCCCN)NC(=O)[C@@H](Cc2c[nH]c3ccccc23)NC(=O)[C@H](Cc2ccc(O)cc2)NC(=O)[C@@H](NC(=O)[C@@H](Cc2ccccc2)NC(=O)CN2CCN(CCO)CC2)CSSC[C@@H](C(=O)N[C@H](C(N)=O)[C@@H](C)O)NC1=O", "note": "[Compound 3, 4-(2-Hydroxyethyl)-1-piperazinylacetyl-D-Phe-cyclo(Cys-Tyr-D-Trp-Lys-Abu-Cys)-Thr-NH2]", "values": [{"measurement": "Significant reduction of [3H]thy incorporation", "setting": "human MTC cell line TT [2]; 10^-8 M and 10^-7 M", "result": "not"}, {"measurement": "Significant reduction of [3H]thy incorporation", "setting": "human MTC cell line TT [2]; 10^-9 M", "result": "significantly (p<0.05) reduced"}, {"measurement": "Change of [3H]thy incorporation", "setting": "human MTC cell line TT [2]; 10^-9 M, 48 h", "result": "−17", "unit": "%"}, {"measurement": "Ki", "setting": "human SSTR1", "result": 5.21, "unit": "µM"}]}, {"smiles": "CC[C@@H]1NC(=O)[C@H](CCCCN)NC(=O)[C@@H](Cc2c[nH]c3ccccc23)NC(=O)[C@H](Cc2ccc(O)cc2)NC(=O)[C@@H](NC(=O)[C@@H](Cc2ccccc2)NS(=O)(=O)CCN2CCN(CCO)CC2)CSSC[C@@H](C(=O)N[C@H](C(N)=O)[C@@H](C)O)NC1=O", "note": "[Compound 4, 4-(2-Hydroxyethyl)-1-piperazine-2-ethanesulfonyl-D-Phe-cyclo(Cys-Tyr-D-Trp-Lys-Abu-Cys)-Thr-NH2]", "values": [{"measurement": "Significant reduction of [3H]thy incorporation", "setting": "human MTC cell line TT [2]; 10^-8 M and 10^-7 M", "result": "not"}, {"measurement": "Significant reduction of [3H]thy incorporation", "setting": "human MTC cell line TT [2]; 10^-9 M", "result": "significantly (p<0.05) reduced"}, {"measurement": "Change of [3H]thy incorporation", "setting": "human MTC cell line TT [2]; 10^-9 M, 48 h", "result": "−13", "unit": "%"}]}, {"smiles": "C[C@@H](O)[C@H](NC(=O)[C@H](Cc1ccccc1)NC(=O)[C@@H](NC(=O)[C@H](CCCCN)NC(=O)[C@@H](Cc1c[nH]c2ccccc12)NC(=O)[C@H](Cc1c[nH]c2ccccc12)NC(=O)[C@H](Cc1ccccc1)NC(=O)[C@H](N)Cc1ccccc1)[C@@H](C)O)C(N)=O", "note": "[Compound 5, D-Phe-Phe-Trp-D-Trp-Lys-Thr-Phe-Thr-NH2]", "values": [{"measurement": "Increase of TT cell proliferation", "setting": "human MTC cell line TT [3]; 10^-8 M, not statistically different from control", "result": "up to 11%"}, {"measurement": "Effect on suppression of TT cell proliferation produced by Compound 2", "setting": "human MTC cell line TT [3]; 10^-9 M to 10^-6 M with Compound 2 10^-7 M, FIG. 8 lower panel", "result": "dose-dependently prevented"}, {"measurement": "Effect on suppression of TT cell [3H]thy incorporation produced by Compound 2", "setting": "human MTC cell line TT [2]; 10^-9 M to 10^-6 M with Compound 2 10^-7 M, FIG. 8 upper panel", "result": "dose-dependently prevented"}, {"measurement": "Increase of [3H]thy incorporation", "setting": "human MTC cell line TT [2]; 10^-9 to 10^-6 M, 48 h", "result": "80-175%"}]}]}
